Laboratory results: patent US10294202B2, “Pyrrolidinones as herbicides” (FMC Corporation, priority 2013, dated 2019)

Experiments:
[1] = tested on: barnyardgrass; experiment: Test A pre-/postemergence herbicide test; format: in vivo, Echinochloa crus-galli; settings: for Barnyardgrass plant response rating: Preemergence, visual rating on 0 to 100 scale (0 no effect, 100 complete control)
Procedure, shortened: (§1)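 Directed soil spray to seeded pots (preemergence) or spray onto one- to two-leaf seedlings 2–10 cm tall (postemergence); loam/sand substrate throughout. Evaluated visually after about 10 days against untreated plants, 0 = no effect, 100 = complete control.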

[2] = tested on: crabgrass, large; experiment: Test A pre-/postemergence herbicide test; format: in vivo, Digitaria sanguinalis; settings: for Crabgrass, Large plant response rating: Preemergence, visual rating on 0 to 100 scale (0 no effect, 100 complete control)
Procedure, shortened: as §1

[3] = tested on: giant foxtail; experiment: Test A pre-/postemergence herbicide test; format: in vivo, Setaria faberii; settings: for Foxtail, Giant plant response rating: Preemergence, visual rating on 0 to 100 scale (0 no effect, 100 complete control)
Procedure, shortened: as §1

[4] = tested on: morningglory; experiment: Test A pre-/postemergence herbicide test; format: in vivo, Ipomoea spp.; settings: for Morningglory plant response rating: Preemergence, visual rating on 0 to 100 scale (0 no effect, 100 complete control)
Procedure, shortened: as §1

[5] = tested on: pigweed; experiment: Test A pre-/postemergence herbicide test; format: in vivo, Amaranthus retroflexus; settings: for Pigweed plant response rating: Preemergence, visual rating on 0 to 100 scale (0 no effect, 100 complete control)
Procedure, shortened: as §1

[6] = tested on: velvetleaf; experiment: Test A pre-/postemergence herbicide test; format: in vivo, Abutilon theophrasti; settings: for Velvetleaf plant response rating: Preemergence, visual rating on 0 to 100 scale (0 no effect, 100 complete control)
Procedure, shortened: as §1

[7] = tested on: wheat; experiment: Test A pre-/postemergence herbicide test; format: in vivo, Triticum aestivum; settings: for Wheat plant response rating: Preemergence, visual rating on 0 to 100 scale (0 no effect, 100 complete control)
Procedure, shortened: as §1

[8] = tested on: corn; experiment: Test A pre-/postemergence herbicide test; format: in vivo, Zea mays; settings: for Corn plant response rating: Preemergence, visual rating on 0 to 100 scale (0 no effect, 100 complete control)
Procedure, shortened: as §1

[9] = tested on: rice; experiment: Test B flooded paddy test; format: in vivo, Oryza sativa; settings: 250 g ai/ha, Flood; scale of 0 to 100 where 0 is no effect and 100 is complete control
Procedure: (§2) Plant species in the flooded paddy test selected from rice (Oryza sativa), sedge, umbrella (small-flower umbrella sedge, Cyperus difformis), ducksalad (Heteranthera limosa), and barnyardgrass (Echinochloa crus-galli) were grown to the 2-leaf stage for testing. At time of treatment, test pots were flooded to 3 cm above the soil surface, treated by application of test compounds directly to the paddy water, and then maintained at that water depth for the duration of the test. Treated plants and controls were maintained in a greenhouse for 13 to 15 days, after which time all species were compared to controls and visually evaluated. Plant response ratings, summarized in Table B, are based on a scale of 0 to 100 where 0 is no effect and 100 is complete control. A dash (-) response means no test result.

[10] = tested on: sedge, umbrella; experiment: Test B flooded paddy test; format: in vivo, Cyperus difformis; settings: 250 g ai/ha, Flood; scale of 0 to 100 where 0 is no effect and 100 is complete control
Procedure: as §2

[11] = tested on: ducksalad; experiment: Test B flooded paddy test; format: in vivo, Heteranthera limosa; settings: 250 g ai/ha, Flood; scale of 0 to 100 where 0 is no effect and 100 is complete control
Procedure: as §2

[12] = tested on: barnyardgrass; experiment: Test B flooded paddy test; format: in vivo, Echinochloa crus-galli; settings: 250 g ai/ha, Flood; scale of 0 to 100 where 0 is no effect and 100 is complete control
Procedure: as §2

[13] = Postemergence, 125 g ai/ha, 0 to 100 scale, 0 no effect, 100 complete control
[14] = Postemergence, 500 g ai/ha, 0 to 100 scale (0 no effect, 100 complete control)
[15] = preemergence, 500 g ai/ha, 0 to 100 scale (0 no effect, 100 complete control)
[16] = preemergence, 500 g ai/ha, 0 to 100 scale

## O=C1NCC(c2ccc(Cl)c(Cl)c2)C1C(=O)Nc1ccccc1OC(F)(F)F (racemic) [Compound 32]
[1]; [13]
  Plant response rating, Barnyardgrass: 0
[1]; [14]
  Plant response rating, Barnyardgrass: 0
[1]; 125 g ai/ha
  Barnyardgrass plant response rating: 0
[1]; [15]
  Plant response rating, Barnyardgrass: 0
[2]; [13]
  Plant response rating, Crabgrass, Large: 0
[2]; [14]
  Plant response rating, Crabgrass, Large: 30
[2]; 125 g ai/ha
  Crabgrass, Large plant response rating: 80
[2]; [16]
  Plant response rating, Crabgrass, Large: 80
[3]; [13]
  Plant response rating, Foxtail, Giant: 0
[3]; [14]
  Plant response rating, Foxtail, Giant: 40
[3]; 125 g ai/ha
  Foxtail, Giant plant response rating: 70
[3]; [16]
  Plant response rating, Foxtail, Giant: 80
[4]; [13]
  Plant response rating, Morningglory: 0
[4]; [14]
  Plant response rating, Morningglory: 0
[4]; 125 g ai/ha
  Morningglory plant response rating: 0
[4]; [16]
  Plant response rating, Morningglory: 0
[5]; [13]
  Plant response rating, Pigweed: 0
[5]; [14]
  Plant response rating, Pigweed: 0
[5]; 125 g ai/ha
  Pigweed plant response rating: 0
[5]; [16]
  Plant response rating, Pigweed: 0
[6]; [13]
  Plant response rating, Velvetleaf: 0
[6]; [14]
  Plant response rating, Velvetleaf: 0
[6]; 125 g ai/ha
  Velvetleaf plant response rating: 0
[6]; [16]
  Plant response rating, Velvetleaf: 0
[7]; [13]
  Plant response rating, Wheat: 0
[7]; [14]
  Plant response rating, Wheat: 0
[7]; 125 g ai/ha
  Wheat plant response rating: 0
[7]; [16]
  Plant response rating, Wheat: 0
[8]; [13]
  Plant response rating, Corn: 0
[8]; [14]
  Plant response rating, Corn: 0
[8]; 125 g ai/ha
  Corn plant response rating: 0
[8]; [16]
  Plant response rating, Corn: 0
[9]
  Plant response rating, Rice: 0
[10]
  Plant response rating, Sedge, Umbrella: 0
[11]
  Plant response rating, Ducksalad: 50
[12]
  Plant response rating, Barnyardgrass: 0

## COc1cccc(C2CNC(=O)C2C(=O)Nc2ccccc2F)c1 (racemic) [Compound 36]
[1]; [13]
  Plant response rating, Barnyardgrass: 0
[1]; [14]
  Plant response rating, Barnyardgrass: 80
[1]; 125 g ai/ha
  Barnyardgrass plant response rating: 40
[1]; [15]
  Plant response rating, Barnyardgrass: 80
[2]; [13]
  Plant response rating, Crabgrass, Large: 0
[2]; [14]
  Plant response rating, Crabgrass, Large: 20
[2]; 125 g ai/ha
  Crabgrass, Large plant response rating: 20
[2]; [16]
  Plant response rating, Crabgrass, Large: 80
[3]; [13]
  Plant response rating, Foxtail, Giant: 0
[3]; [14]
  Plant response rating, Foxtail, Giant: 20
[3]; 125 g ai/ha
  Foxtail, Giant plant response rating: 20
[3]; [16]
  Plant response rating, Foxtail, Giant: 70
[4]; [13]
  Plant response rating, Morningglory: 0
[4]; [14]
  Plant response rating, Morningglory: 0
[4]; 125 g ai/ha
  Morningglory plant response rating: 0
[4]; [16]
  Plant response rating, Morningglory: 0
[5]; [13]
  Plant response rating, Pigweed: 0
[5]; [14]
  Plant response rating, Pigweed: 0
[5]; 125 g ai/ha
  Pigweed plant response rating: 0
[5]; [16]
  Plant response rating, Pigweed: 0
[6]; [13]
  Plant response rating, Velvetleaf: 0
[6]; [14]
  Plant response rating, Velvetleaf: 0
[6]; 125 g ai/ha
  Velvetleaf plant response rating: 0
[6]; [16]
  Plant response rating, Velvetleaf: 0
[7]; [13]
  Plant response rating, Wheat: 0
[7]; [14]
  Plant response rating, Wheat: 0
[7]; 125 g ai/ha
  Wheat plant response rating: 0
[7]; [16]
  Plant response rating, Wheat: 20
[8]; [13]
  Plant response rating, Corn: 0
[8]; [14]
  Plant response rating, Corn: 0
[8]; 125 g ai/ha
  Corn plant response rating: 0
[8]; [16]
  Plant response rating, Corn: 0
[9]
  Plant response rating, Rice: 0
[10]
  Plant response rating, Sedge, Umbrella: 40
[11]
  Plant response rating, Ducksalad: 60
[12]
  Plant response rating, Barnyardgrass: 0
